Test results: patent publication US10258041B2, “Substituted pyrazolylpyrazole derivative and use of same as herbicide” (KYOYU AGRI CO., LTD., priority 2015, dated 2019)

Experiments:
Assay type in all cases: in vivo
Echinochloa crus-galli = test: Paddy herbicidal activity test; details: irrigated pot, treated at 3.5 leaf stage of Echinochloa crus-galli, 30 days
Experimental: (§1) Rice paddy soil was filled into a 1/10000 are pot followed by the addition of suitable amounts of water and chemical fertilizer, kneading, seeding with Echinochloa crus-galli, Monochoria vaginalis and Scirpus juncoides and maintaining in an irrigated state at a water depth of 3 cm. Wettable powders of Target Compound (I) shown in Table 1 prepared in compliance with the preparation examples were diluted with a suitable amount of water, rice plants in the 2.0 leaf stage were transplanted during 3.5 leaf stage of Echinochloa crus-galli, and treated by dropping in chemical in the prescribed amount per 10 are using a pipette. After treating for 30 days in a glass greenhouse at an average atmospheric temperature of […], the herbicidal efficacy thereof was investigated. Evaluation of herbicidal efficacy was carried out by comparing growth inhibition rate (%) with an untreated group, while evaluation of chemical damage was carried out by comparing growth inhibition rate (%) with the state of a complete eradication group, and were evaluated at 11 levels indicated below. • 0 (exponent): 0% to less than 10% (growth inhibition rate) • 1: 10% to less than 20% • 2: 20% to less than 30% • 3: 30% to less than 40% • 4: 40% to less than 50% • 5: 50% to less than 60% • 6: 60% to less than 70% • 7: 70% to less than 80% • 8: 80% to less than 90% • 9: 90% to less than 100% • 10: 100%

Monochoria vaginalis = test: Paddy herbicidal activity test; details: irrigated pot, treated at 3.5 leaf stage of Echinochloa crus-galli, 30 days
Experimental: as §1

Scirpus juncoides = test: Paddy herbicidal activity test; details: irrigated pot, treated at 3.5 leaf stage of Echinochloa crus-galli, 30 days
Experimental: as §1

Oryza sativa = test: Paddy herbicidal activity test, chemical damage to transplanted rice; details: rice transplanted in 2.0 leaf stage, 30 days
Experimental: as §1

Amaranthus retroflexus [1] = test: Farming soil treatment test; details: soil surface spray prior to weed growth, 30 days, 30° C.
Experimental: (§2) Evaluation of herbicidal efficacy was carried out by comparing growth inhibition rate (%) with an untreated group, while evaluation of chemical damage was carried out by comparing growth inhibition rate (%) with the state of a complete eradication group, and were evaluated at 11 levels indicated below. • 0 (exponent): 0% to less than 10% (growth inhibition rate) • 1: 10% to less than 20% • 2: 20% to less than 30% • 3: 30% to less than 40% • 4: 40% to less than 50% • 5: 50% to less than 60% • 6: 60% to less than 70% • 7: 70% to less than 80% • 8: 80% to less than 90% • 9: 90% to less than 100% • 10: 100% Field soil was filled into a 1/6000 are pot followed by seeding with Digitaria ciliaris, Chenopodium album and Amraranthus retroflexus and covering with soil. Wettable powders of compounds of formula (I) shown in Table 1 prepared in compliance with the preparation examples were diluted with water to the prescribed amount of chemical and uniformly sprayed onto each soil surface layer using 100 liters of sprayed water per 10 are prior to weed growth following seeding. After treating for 30 days in a glass greenhouse at an average atmospheric temperature of 30° C., the herbicidal efficacy thereof was investigated. Evaluation of herbicidal efficacy was carried out in the same manner as the above-mentioned Test Example 1,

Chenopodium album [2] = test: Farming soil treatment test; details: soil surface spray prior to weed growth, 30 days, 30° C.
Experimental: as §2

Digitaria ciliaris [3] = test: Farming soil treatment test; details: soil surface spray prior to weed growth, 30 days, 30° C.
Experimental: as §2

Amaranthus retroflexus [4] = test: Weed foliar treatment test (Test 3); details: foliar spray at 1.0 to 2.0 leaf stage of Digitaria ciliaris, 3 weeks, 25° C.
Experimental: (§3) Evaluation of herbicidal efficacy was carried out by comparing growth inhibition rate (%) with an untreated group, while evaluation of chemical damage was carried out by comparing growth inhibition rate (%) with the state of a complete eradication group, and were evaluated at 11 levels indicated below. • 0 (exponent): 0% to less than 10% (growth inhibition rate) • 1: 10% to less than 20% • 2: 20% to less than 30% • 3: 30% to less than 40% • 4: 40% to less than 50% • 5: 50% to less than 60% • 6: 60% to less than 70% • 7: 70% to less than 80% • 8: 80% to less than 90% • 9: 90% to less than 100% • 10: 100% Soil was filled into a 1/6000 are pot followed by seeding with Digitaria ciliaris, Chenopodium album and Amaranthus retroflexus, covering with soil, and cultivating in a glass greenhouse at an average atmospheric temperature of 25° C. Wettable powders of Target Compound (I) shown in Table 1 prepared in compliance with the preparation examples were diluted with water to the prescribed amount of chemical and uniformly sprayed onto the weeds using 150 liters of sprayed water per 10 are when Digitaria ciliaris had grown to the 1.0 to 2.0 leaf stage. After treating for 3 weeks in a glass greenhouse at an average atmospheric temperature of 25° C., the herbicidal efficacy thereof was investigated. Evaluation of herbicidal efficacy was carried out in the same manner as the above-mentioned Test Example 1.

Chenopodium album [5] = test: Weed foliar treatment test (Test 3); details: foliar spray at 1.0 to 2.0 leaf stage of Digitaria ciliaris, 3 weeks, 25° C.
Experimental: as §3

Digitaria ciliaris [6] = test: Weed foliar treatment test (Test 3); details: foliar spray at 1.0 to 2.0 leaf stage of Digitaria ciliaris, 3 weeks, 25° C.
Experimental: as §3

Digitaria ciliaris [7] = test: Weed foliar treatment test (Test 4, higher leaf stage); details: 10 g a.i./10a; foliar spray at 4.0 to 5.0 leaf stage of Digitaria ciliaris (plant height 10 cm to 15 cm); 20 days, 25° C.
Experimental: (§4) Evaluation of herbicidal efficacy was carried out by comparing growth inhibition rate (%) with an untreated group, while evaluation of chemical damage was carried out by comparing growth inhibition rate (%) with the state of a complete eradication group, and were evaluated at 11 levels indicated below. • 0 (exponent): 0% to less than 10% (growth inhibition rate) • 1: 10% to less than 20% • 2: 20% to less than 30% • 3: 30% to less than 40% • 4: 40% to less than 50% • 5: 50% to less than 60% • 6: 60% to less than 70% • 7: 70% to less than 80% • 8: 80% to less than 90% • 9: 90% to less than 100% • 10: 100% Field soil was filled into a 1/4500 are pot followed by seeding with Digitaria ciliaris and Galinsoga parviflora, covering with soil and cultivating in a glass greenhouse at an average atmospheric temperature of 25° C. Wettable powders of Target Compound (I) shown, in Table 1 prepared in compliance with the preparation examples were diluted with water to the prescribed amount of chemical and uniformly sprayed onto the weeds using 100 liters of sprayed water per 10 are when Digitaria ciliaris had grown to the 4.0 to 5.0 leaf stage (plant height: 10 cm to 15 cm). After treating for 20 days in a glass greenhouse at an average atmospheric temperature of 25° C., the herbicidal efficacy thereof was investigated. Evaluation of herbicidal efficacy was carried out in the same manner as the above-mentioned Test Example 1.

Galinsoga parviflora = test: as above; details: 10 g a.i./10a; foliar spray at 4.0 to 5.0 leaf stage of Digitaria ciliaris; 20 days, 25° C.
Experimental: as §4

N#Cc1cnn(-c2nn3c(c2Cl)CCCC3)c1NC(=O)CCl [Control Agent 1.9]
herbicidal efficacy (growth inhibition rate level), Echinochloa crus-galli (Echinochloa crus-galli; 1 g a.i./10a): 2 (2: 20% to less than 30%) | herbicidal efficacy (growth inhibition rate level), Echinochloa crus-galli (Echinochloa crus-galli; 5 g a.i./10a): 2 (2: 20% to less than 30%) | herbicidal efficacy (growth inhibition rate level), Monochoria vaginalis (Monochoria vaginalis; 1 g a.i./10a): 2 (2: 20% to less than 30%) | herbicidal efficacy (growth inhibition rate level), Monochoria vaginalis (Monochoria vaginalis; 5 g a.i./10a): 2 (2: 20% to less than 30%) | herbicidal efficacy (growth inhibition rate level), Scirpus juncoides (Scirpus juncoides; 1 g a.i./10a): 0 (0 (exponent): 0% to less than 10% (growth inhibition rate)) | herbicidal efficacy (growth inhibition rate level), Scirpus juncoides (Scirpus juncoides; 5 g a.i./10a): 1 (1: 10% to less than 20%) | chemical damage (growth inhibition rate level), Oryza sativa (Oryza sativa; 1 g a.i./10a): 1 (1: 10% to less than 20%) | chemical damage (growth inhibition rate level), Oryza sativa (Oryza sativa; 5 g a.i./10a): 1 (1: 10% to less than 20%) | herbicidal efficacy (growth inhibition rate level), Amaranthus retroflexus (Amaranthus retroflexus [1]; 5 g a.i./10a): 5 (5: 50% to less than 60%) | herbicidal efficacy (growth inhibition rate level), Amaranthus retroflexus (Amaranthus retroflexus [1]; 10 g a.i./10a): 6 (6: 60% to less than 70%) | herbicidal efficacy (growth inhibition rate level), Chenopodium album (Chenopodium album [2]; 5 g a.i./10a): 1 (1: 10% to less than 20%) | herbicidal efficacy (growth inhibition rate level), Chenopodium album (Chenopodium album [2]; 10 g a.i./10a): 2 (2: 20% to less than 30%) | herbicidal efficacy (growth inhibition rate level), Digitaria ciliaris (Digitaria ciliaris [3]; 5 g a.i./10a): 0 (0 (exponent): 0% to less than 10% (growth inhibition rate)) | herbicidal efficacy (growth inhibition rate level), Digitaria ciliaris (Digitaria ciliaris [3]; 10 g a.i./10a): 1 (1: 10% to less than 20%) | herbicidal efficacy (growth inhibition rate level), Amaranthus retroflexus (Amaranthus retroflexus [4]; 5 g a.i./10a): 6 (6: 60% to less than 70%) | herbicidal efficacy (growth inhibition rate level), Amaranthus retroflexus (Amaranthus retroflexus [4]; 10 g a.i./10a): 6 (6: 60% to less than 70%) | herbicidal efficacy (growth inhibition rate level), Chenopodium album (Chenopodium album [5]; 5 g a.i./10a): 1 (1: 10% to less than 20%) | herbicidal efficacy (growth inhibition rate level), Chenopodium album (Chenopodium album [5]; 10 g a.i./10a): 2 (2: 20% to less than 30%) | herbicidal efficacy (growth inhibition rate level), Digitaria ciliaris (Digitaria ciliaris [6]; 5 g a.i./10a): 2 (2: 20% to less than 30%) | herbicidal efficacy (growth inhibition rate level), Digitaria ciliaris (Digitaria ciliaris [6]; 10 g a.i./10a): 2 (2: 20% to less than 30%) | herbicidal efficacy (growth inhibition rate level), Digitaria ciliaris (Digitaria ciliaris [7]): 1 (1: 10% to less than 20%) | herbicidal efficacy (growth inhibition rate level), Galinsoga parviflora (Galinsoga parviflora): 5 (5: 50% to less than 60%)
